According to PubChem BioAssay AID2060602 (Molecular Pharmacology Branch, DTP, NCI, 2025):

Test system: 648629-189-R-J1-PDC complex spheroids viability
Assay: Anticancer human tumor 648629-189-R-J1-PDC patient-derived bladder carcinoma cell line growth inhibition [CLK]
Conditions: for IC50: curve of first compound; for viability, T/C: stronger effect = lower value
From the text: A high-throughput screen of multi-cell type tumor spheroids was designed to identify active combinations of […] and targeted small molecules. Complex spheroids include a stromal component modeled by human endothelial cells (HUVEC) and fibroblasts modeled by human mesenchymal stem cells (MSCs). The concentration ranges selected for each drug and investigational agent were based upon clinically achievable concentrations if the clinical Cmax of the agent was known.
Compounds. The drugs and investigational agents: cirtuvivint (SM08502; NSC835563), CC-671 (NSC850746), vemurafenib (NSC761431), tapotoclax (NSC804041), sotorasib (NSC818433), adagrasib (NSC831453), MRTX-1133 (NSC836407), BAY2416964 (NSC825713), copanlisib (NSC816437), inavolisib (NSC800729), abemaciclib (NSC768073), osimertinib (NSC779217), entinostat (NSC756642), eltanexor (KPT-8602, NSC794443), venetoclax (NSC766270), ceralasertib (NSC777638), bortezomib (NSC756655), olaparib (NSC753686), talazoparib (NSC767125), alisertib (NSC759677), peposertib (NSC802822), gemcitabine (NSC613327), 5-fluorouracil (NSC19893), SN-38 (NSC673596), oxaliplatin (NSC266046), paclitaxel (NSC125973), and doxorubicin (NSC123127), were obtained from the National Cancer Institute (NCI) Developmental Therapeutics Program Chemical Repository. The FDA-approved anticancer drug set is available from the Developmental Therapeutics Program at https://dtp.cancer.gov/organization/dscb/obtaining/available plates.htm. […] The stock solutions were prepared in dimethyl sulfoxide (DMSO, Sigma-Aldrich, St. Louis, MO, cat. D2650), except for the platinum complexes which were prepared in saline (Quality Biological, Gaithersburg, MD, cat. 114-055-101), at 800-fold the tested concentration and stored at -70 degrees C prior to their use. All drugs and investigational agents were tested over a range starting from a high concentration at or near the clinical Cmax and decreasing in half-log increments. If the clinical Cmax for an agent had not been determined, the highest concentration tested was 10 microM.
Cell Culture. All cells were maintained in an incubator at 37 degrees C and 5% CO2 with 95% humidity. The PDC lines were cultured according to standard operating procedures established by the NCI PDMR. Briefly, all PDCs were thawed and cultured in Matrigel-coated flasks prepared with a working solution of 1X Ham's F-12 nutrient mix, without supplementation (Invitrogen, Waltham, MA, cat. 11765054), 100 U/mL penicillin-streptomycin (Invitrogen, cat. 15140122), and 2.5% Matrigel (Corning Inc., Corning, NY, cat. 354248) for the first three passages. The 947758-054-R-J2-PDC line was cultured in 6B/Colon 1A media, which includes advanced DMEM/F-12 (Thermo Fisher Scientific, cat. 12634028), 10 mM HEPES (Thermo Fisher Scientific, cat. 15630080), 1X GlutaMAX supplement (Thermo Fisher Scientific, cat. 35050061), 0.1 mg/mL primocin (InvivoGen, cat. ant-pm-2), 10% defined fetal bovine serum, heat inactivated (HyClone Laboratories Inc., cat. SH30070.03HI), 1.25 mM N-Acetyl-L-cysteine (Sigma-Aldrich, cat. A9165), 10 mM nicotinamide (Sigma-Aldrich, cat. N0636), 1X B-27 supplement (Thermo Fisher Scientific, cat. 17504044), 1X N-2 supplement (Thermo Fisher Scientific, cat. 17502048), and 10 microM Y-27632 dihydrochloride (Tocris Bioscience, cat. 1254). The 876862-298-R-J1-PDC was cultured in 6E media, which includes all 6B/Colon 1A media components plus 50% L-WRN conditioned media (ATCC, cat. CRL-3276), 50 ng/mL recombinant human EGF recombinant protein (hEGF; Thermo Fisher Scientific, cat. PHG0311), 10 ng/mL recombinant human fibroblast growth factor 10 (hGFG-10; PeproTech, cat. 100-26), 1 ng/mL recombinant human fibroblast growth factor 2 (hFGF-2; PeproTech, cat. 100-18B), and 1 µM prostaglandin E2 (PGE2; Tocris, cat. 2296). The 227483-062-R1-J1-PDC line was cultured in Panc media, containing all 6E components except hFGF-2, with the addition of 500 nM SB-431542 (Selleckchem, cat. S1067) and 10 nM gastrin (Tocris, cat. 3006). […]

[1] = second compound 0.0316 µM, first compound 0.0316 µM
[2] = second compound 0.0316 µM, first compound 0.1 µM
[3] = second compound 0.0316 µM, first compound 0.316 µM
[4] = second compound 0.0316 µM, first compound 1 µM
[5] = second compound 0.0316 µM, first compound 3.16 µM
[6] = second compound 0.0316 µM, first compound 10 µM
[7] = second compound 0.1 µM, first compound 0.0316 µM
[8] = second compound 0.1 µM, first compound 0.1 µM
[9] = second compound 0.1 µM, first compound 0.316 µM
[10] = second compound 0.1 µM, first compound 1 µM
[11] = second compound 0.1 µM, first compound 3.16 µM
[12] = second compound 0.1 µM, first compound 10 µM
[13] = second compound 0.316 µM, first compound 0.0316 µM
[14] = second compound 0.316 µM, first compound 0.1 µM
[15] = second compound 0.316 µM, first compound 0.316 µM
[16] = second compound 0.316 µM, first compound 1 µM
[17] = second compound 0.316 µM, first compound 3.16 µM
[18] = second compound 0.316 µM, first compound 10 µM
[19] = second compound 1 µM, first compound 0.0316 µM
[20] = second compound 1 µM, first compound 0.1 µM
[21] = second compound 1 µM, first compound 0.316 µM
[22] = second compound 1 µM, first compound 1 µM
[23] = second compound 1 µM, first compound 3.16 µM
[24] = second compound 1 µM, first compound 10 µM
[25] = second compound 3.16 µM, first compound 0.0316 µM
[26] = second compound 3.16 µM, first compound 0.1 µM
[27] = second compound 3.16 µM, first compound 0.316 µM
[28] = second compound 3.16 µM, first compound 1 µM
[29] = second compound 3.16 µM, first compound 3.16 µM
[30] = second compound 3.16 µM, first compound 10 µM
[31] = second compound 10 µM, first compound 0.0316 µM
[32] = second compound 10 µM, first compound 0.1 µM
[33] = second compound 10 µM, first compound 0.316 µM
[34] = second compound 10 µM, first compound 1 µM
[35] = second compound 10 µM, first compound 3.16 µM
[36] = second compound 10 µM, first compound 10 µM
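Wherever viability, T/C is given: drug exposure lasted seven days before viability readout; 100% = DMSO vehicle control wells.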

In the case of `C=C(F)C(=O)N1CCN(c2nc(OCC3CCCN3C)nc3c2CCN(c2cccc4cccc(Cl)c24)C3)CC1CC#N` (centres undefined) + CN1CCN(c2cc(C(=O)Nc3cc4cc(-c5cnn(C)c5)ccc4cn3)ccn2)CC1, the IC50 (second compound 0.0316 µM) is reported as 5690 nM, the IC50 (second compound 0.1 µM) is reported as 5430 nM and the IC50 (second compound 0.316 µM) is reported as under 31.6 nM. The IC50 (second compound 1 µM) was under 31.6 nM, the IC50 (second compound 3.16 µM) was under 31.6 nM and the IC50 (second compound 10 µM) was under 31.6 nM. The viability, T/C [1] was 111%, the viability, T/C [2] was 105% and the viability, T/C [3] was 109%. For the same compound, the viability, T/C [4] was 126%, the viability, T/C [5] was 102% and the viability, T/C [6] was 0.2%. For the same compound, the viability, T/C [7] was 106%, the viability, T/C [8] was 114% and the viability, T/C [9] was 98.5%. For the same compound, the viability, T/C [10] was 106%, the viability, T/C [11] was 94.2% and the viability, T/C [12] was 0.16%. It also gave a viability, T/C [13] of 46%, a viability, T/C [14] of 45.1% and a viability, T/C [15] of 50%. The viability, T/C [16] was 50.1%, the viability, T/C [17] was 47.5% and the viability, T/C [18] was 0.75%. The viability, T/C [19] was 0.54%, the viability, T/C [20] was 0.36% and the viability, T/C [21] was 0.62%. The viability, T/C [22] was 0.47%, the viability, T/C [23] was 0.48% and the viability, T/C [24] was 0.1%. For the same compound, the viability, T/C [25] was 0.13%, the viability, T/C [26] was 0.15% and the viability, T/C [27] was 0.17%. The viability, T/C [28] was 0.16%, the viability, T/C [29] was 0.14% and the viability, T/C [30] was 0.11%. For the same compound, the viability, T/C [31] was 0.21%, the viability, T/C [32] was 0.19% and the viability, T/C [33] was 0.21%. It also gave a viability, T/C [34] of 0.24%, a viability, T/C [35] of 0.25% and a viability, T/C [36] of 0.21%.
For `CC(CO)NC(=O)c1cc(-c2ccc(Cl)cc2)nn(-c2cnn(C)c2)c1=O` (centres undefined) + CN1CCN(c2cc(C(=O)Nc3cc4cc(-c5cnn(C)c5)ccc4cn3)ccn2)CC1, the IC50 (second compound 0.0316 µM) was over 10000 nM, the IC50 (second compound 0.1 µM) was over 10000 nM and the IC50 (second compound 0.316 µM) was under 31.6 nM. The IC50 (second compound 1 µM) was under 31.6 nM, the IC50 (second compound 3.16 µM) was under 31.6 nM and the IC50 (second compound 10 µM) was under 31.6 nM. The viability, T/C [1] was 109%, the viability, T/C [2] was 109% and the viability, T/C [3] was 99.3%. It also gave a viability, T/C [4] of 125%, a viability, T/C [5] of 109% and a viability, T/C [6] of 85.6%. The viability, T/C [7] was 103%, the viability, T/C [8] was 100% and the viability, T/C [9] was 94.5%. It also gave a viability, T/C [10] of 114%, a viability, T/C [11] of 105% and a viability, T/C [12] of 84.7%. It also gave a viability, T/C [13] of 38.1%, a viability, T/C [14] of 51.2% and a viability, T/C [15] of 44.7%. It also gave a viability, T/C [16] of 56.9%, a viability, T/C [17] of 47.2% and a viability, T/C [18] of 43.6%. It also gave a viability, T/C [19] of 0.43%, a viability, T/C [20] of 0.37% and a viability, T/C [21] of 0.32%. For the same compound, the viability, T/C [22] was 0.48%, the viability, T/C [23] was 0.38% and the viability, T/C [24] was 0.26%. The viability, T/C [25] was 0.14%, the viability, T/C [26] was 0.17% and the viability, T/C [27] was 0.16%. It also gave a viability, T/C [28] of 0.18%, a viability, T/C [29] of 0.17% and a viability, T/C [30] of 0.18%. The viability, T/C [31] was 0.22%, the viability, T/C [32] was 0.25% and the viability, T/C [33] was 0.22%. The viability, T/C [34] was 0.23%, the viability, T/C [35] was 0.24% and the viability, T/C [36] was 0.22%.
